One assay is filed under the species Homo sapiens. The experiment in a line: Inhibition of human full length PKA expressed in baculovirus assessed as substrate phosphorylation using fluorescence-labelled peptides as substrate at 0.2 uM after 90 mins by microfluidic peptide phosphorylation assay.
Assay [1] deals with T1, Serine/threonine-protein kinase 3 (Homo sapiens) (UniProt Q13188).
T1 sequence (whole entry): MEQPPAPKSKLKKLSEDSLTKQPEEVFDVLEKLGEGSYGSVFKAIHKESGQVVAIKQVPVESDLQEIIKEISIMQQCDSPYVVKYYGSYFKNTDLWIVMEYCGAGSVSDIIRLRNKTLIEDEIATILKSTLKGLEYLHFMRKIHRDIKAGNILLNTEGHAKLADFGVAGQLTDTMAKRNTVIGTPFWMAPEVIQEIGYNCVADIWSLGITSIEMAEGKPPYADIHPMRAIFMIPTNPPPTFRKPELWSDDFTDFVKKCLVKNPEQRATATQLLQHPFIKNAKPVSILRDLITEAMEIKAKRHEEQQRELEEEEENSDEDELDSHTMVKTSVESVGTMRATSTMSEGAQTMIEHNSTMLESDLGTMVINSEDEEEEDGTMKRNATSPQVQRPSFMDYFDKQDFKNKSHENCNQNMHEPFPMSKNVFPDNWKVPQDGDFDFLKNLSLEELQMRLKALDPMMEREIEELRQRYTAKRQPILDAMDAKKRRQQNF
The experiment in a line: Inhibition of human full length MST2 expressed in baculovirus assessed as substrate phosphorylation using fluorescence-labelled peptides as substrate at 95 uM after 90 mins by microfluidic peptide phosphorylation assay.

The target of assay [2] is Protein kinase C gamma type (Homo sapiens) (UniProt P05129). Kind of assay: Inhibition of human truncated PKC gamma expressed in baculovirus assessed as substrate phosphorylation using fluorescence-labelled peptides as substrate at 8 uM after 90 mins by microfluidic peptide phosphorylation assay.
Assay [3] addresses T2, Cytoplasmic tyrosine-protein kinase BMX (Homo sapiens) (UniProt P51813).
T2 sequence (whole entry): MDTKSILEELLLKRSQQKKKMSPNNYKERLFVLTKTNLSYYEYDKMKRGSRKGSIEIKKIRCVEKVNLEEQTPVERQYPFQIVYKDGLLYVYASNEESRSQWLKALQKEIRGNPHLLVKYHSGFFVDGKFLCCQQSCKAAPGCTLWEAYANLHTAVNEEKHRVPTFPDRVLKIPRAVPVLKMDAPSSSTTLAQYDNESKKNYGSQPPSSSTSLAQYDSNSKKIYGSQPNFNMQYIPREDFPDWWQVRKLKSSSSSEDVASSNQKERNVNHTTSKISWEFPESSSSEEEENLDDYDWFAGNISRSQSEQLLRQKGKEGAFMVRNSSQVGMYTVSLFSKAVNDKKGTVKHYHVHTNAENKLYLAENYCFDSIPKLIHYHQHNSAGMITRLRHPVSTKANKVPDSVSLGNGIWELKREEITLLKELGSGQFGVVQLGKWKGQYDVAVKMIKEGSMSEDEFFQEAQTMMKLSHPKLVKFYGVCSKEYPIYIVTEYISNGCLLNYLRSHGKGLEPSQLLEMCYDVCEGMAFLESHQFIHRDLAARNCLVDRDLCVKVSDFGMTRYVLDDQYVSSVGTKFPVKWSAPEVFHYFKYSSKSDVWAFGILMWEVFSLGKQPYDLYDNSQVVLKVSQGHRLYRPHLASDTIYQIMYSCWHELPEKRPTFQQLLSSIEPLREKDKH
Kind of assay: Inhibition of human full length BMX expressed in baculovirus assessed as substrate phosphorylation using fluorescence-labelled peptides as substrate at 8 uM after 90 mins by microfluidic peptide phosphorylation assay.

Assay [4] has as its target MAP/microtubule affinity-regulating kinase 3 (Homo sapiens) (UniProt P27448). Kind of assay: Inhibition of human full length c-TAK1 expressed in Escherichia coli cell assessed as substrate phosphorylation using fluorescence-labelled peptides as substrate at 1000 uM after 90 mins by microfluidic peptide phosphorylation assay.
The target in assay [5] is Tyrosine-protein kinase Fer (Homo sapiens) (UniProt P16591). Kind of assay: Inhibition of human FER catalytic domain expressed in baculovirus assessed as substrate phosphorylation using fluorescence-labelled peptides as substrate at 0.06 uM after 90 mins by microfluidic peptide phosphorylation assay.
Tyrosine-protein kinase Fer (Homo sapiens), sequence (P16591 whole entry, looked up, the tested form may be a part): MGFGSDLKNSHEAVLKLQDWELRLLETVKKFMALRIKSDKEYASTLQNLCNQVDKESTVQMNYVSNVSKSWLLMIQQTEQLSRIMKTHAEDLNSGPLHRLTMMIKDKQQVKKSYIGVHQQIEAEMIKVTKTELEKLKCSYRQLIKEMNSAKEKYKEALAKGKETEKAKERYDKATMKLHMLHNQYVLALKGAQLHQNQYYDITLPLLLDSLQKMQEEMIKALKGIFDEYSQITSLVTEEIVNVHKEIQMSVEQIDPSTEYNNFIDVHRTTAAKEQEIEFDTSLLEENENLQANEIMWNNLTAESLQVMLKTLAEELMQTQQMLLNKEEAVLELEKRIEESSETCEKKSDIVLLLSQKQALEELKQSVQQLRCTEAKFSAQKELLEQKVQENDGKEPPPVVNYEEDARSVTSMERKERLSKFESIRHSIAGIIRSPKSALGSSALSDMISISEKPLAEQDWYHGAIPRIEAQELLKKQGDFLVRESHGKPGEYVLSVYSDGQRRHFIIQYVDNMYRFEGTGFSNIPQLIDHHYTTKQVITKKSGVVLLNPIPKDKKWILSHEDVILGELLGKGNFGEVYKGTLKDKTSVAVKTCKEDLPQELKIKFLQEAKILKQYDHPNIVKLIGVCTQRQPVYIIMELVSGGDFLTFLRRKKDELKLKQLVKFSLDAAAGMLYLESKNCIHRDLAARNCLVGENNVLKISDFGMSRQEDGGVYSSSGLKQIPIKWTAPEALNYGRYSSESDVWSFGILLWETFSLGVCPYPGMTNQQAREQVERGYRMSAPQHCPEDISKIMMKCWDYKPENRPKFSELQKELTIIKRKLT
Assay [6] deals with Serine/threonine-protein kinase MARK1 (Homo sapiens) (UniProt Q9P0L2). The experiment in a line: Inhibition of human full length MARK1 expressed in baculovirus assessed as substrate phosphorylation using fluorescence-labelled peptides as substrate at 0.06 uM after 90 mins by microfluidic peptide phosphorylation assay.
Serine/threonine-protein kinase MARK1 (Homo sapiens), sequence (Q9P0L2 whole entry, looked up): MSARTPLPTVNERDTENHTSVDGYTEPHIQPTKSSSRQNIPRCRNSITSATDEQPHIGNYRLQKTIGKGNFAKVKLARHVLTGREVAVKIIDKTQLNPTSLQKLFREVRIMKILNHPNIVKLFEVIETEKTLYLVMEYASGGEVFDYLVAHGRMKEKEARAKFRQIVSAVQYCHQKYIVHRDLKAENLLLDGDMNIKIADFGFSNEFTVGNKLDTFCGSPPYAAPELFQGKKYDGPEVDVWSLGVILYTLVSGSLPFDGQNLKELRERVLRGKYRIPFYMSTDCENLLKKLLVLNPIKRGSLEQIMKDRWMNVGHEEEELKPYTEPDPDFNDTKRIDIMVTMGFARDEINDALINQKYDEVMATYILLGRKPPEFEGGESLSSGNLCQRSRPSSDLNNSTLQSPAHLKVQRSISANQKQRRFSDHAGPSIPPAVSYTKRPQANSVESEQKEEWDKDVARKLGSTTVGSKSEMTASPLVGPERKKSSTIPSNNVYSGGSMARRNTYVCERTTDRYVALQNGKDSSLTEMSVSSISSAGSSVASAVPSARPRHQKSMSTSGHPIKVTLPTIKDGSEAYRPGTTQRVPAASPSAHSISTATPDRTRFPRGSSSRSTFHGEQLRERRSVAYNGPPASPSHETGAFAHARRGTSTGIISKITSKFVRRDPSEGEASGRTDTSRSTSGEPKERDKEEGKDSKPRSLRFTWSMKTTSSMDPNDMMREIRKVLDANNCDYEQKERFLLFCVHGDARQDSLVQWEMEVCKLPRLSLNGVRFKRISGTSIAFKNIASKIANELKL
The target of assay [7] is Tyrosine-protein kinase Fyn (Homo sapiens) (UniProt P06241). The experiment in a line: Inhibition of human full length FYN expressed in baculovirus assessed as substrate phosphorylation using fluorescence-labelled peptides as substrate at 2 uM after 90 mins by microfluidic peptide phosphorylation assay.
Tyrosine-protein kinase Fyn (Homo sapiens), sequence (P06241 2-537 limits assumed): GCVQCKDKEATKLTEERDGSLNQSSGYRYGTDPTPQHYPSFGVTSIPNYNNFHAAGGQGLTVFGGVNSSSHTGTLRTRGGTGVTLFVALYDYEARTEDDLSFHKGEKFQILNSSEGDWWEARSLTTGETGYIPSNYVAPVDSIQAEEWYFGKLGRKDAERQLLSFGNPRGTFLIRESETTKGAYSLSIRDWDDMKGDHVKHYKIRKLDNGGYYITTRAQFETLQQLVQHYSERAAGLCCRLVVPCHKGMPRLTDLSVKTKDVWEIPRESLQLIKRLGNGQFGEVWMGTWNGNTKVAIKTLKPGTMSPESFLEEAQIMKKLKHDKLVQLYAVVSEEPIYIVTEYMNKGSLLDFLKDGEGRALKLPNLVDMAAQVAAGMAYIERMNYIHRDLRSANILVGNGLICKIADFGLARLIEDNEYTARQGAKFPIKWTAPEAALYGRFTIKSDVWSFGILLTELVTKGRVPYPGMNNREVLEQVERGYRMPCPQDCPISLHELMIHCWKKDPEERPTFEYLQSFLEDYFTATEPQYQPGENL
Assay [8] deals with Aurora kinase B (Homo sapiens) (UniProt Q96GD4). Kind of assay: Inhibition of human full length AurB expressed in baculovirus assessed as substrate phosphorylation using fluorescence-labelled peptides as substrate at 2 uM after 90 mins by microfluidic peptide phosphorylation assay.
Aurora kinase B (Homo sapiens), sequence (Q96GD4 whole entry): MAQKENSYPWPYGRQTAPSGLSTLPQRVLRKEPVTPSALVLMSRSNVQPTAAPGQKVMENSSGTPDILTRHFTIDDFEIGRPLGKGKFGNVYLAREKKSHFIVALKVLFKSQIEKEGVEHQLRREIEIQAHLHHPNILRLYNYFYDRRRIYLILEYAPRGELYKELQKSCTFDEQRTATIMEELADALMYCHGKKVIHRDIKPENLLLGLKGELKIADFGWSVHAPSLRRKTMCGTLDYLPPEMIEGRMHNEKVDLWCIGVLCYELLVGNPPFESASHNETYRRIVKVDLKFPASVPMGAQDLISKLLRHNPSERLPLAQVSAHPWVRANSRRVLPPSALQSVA
The target in assay [9] is T3, Serine/threonine-protein kinase D3 (Homo sapiens) (UniProt O94806).
T3 sequence (whole entry): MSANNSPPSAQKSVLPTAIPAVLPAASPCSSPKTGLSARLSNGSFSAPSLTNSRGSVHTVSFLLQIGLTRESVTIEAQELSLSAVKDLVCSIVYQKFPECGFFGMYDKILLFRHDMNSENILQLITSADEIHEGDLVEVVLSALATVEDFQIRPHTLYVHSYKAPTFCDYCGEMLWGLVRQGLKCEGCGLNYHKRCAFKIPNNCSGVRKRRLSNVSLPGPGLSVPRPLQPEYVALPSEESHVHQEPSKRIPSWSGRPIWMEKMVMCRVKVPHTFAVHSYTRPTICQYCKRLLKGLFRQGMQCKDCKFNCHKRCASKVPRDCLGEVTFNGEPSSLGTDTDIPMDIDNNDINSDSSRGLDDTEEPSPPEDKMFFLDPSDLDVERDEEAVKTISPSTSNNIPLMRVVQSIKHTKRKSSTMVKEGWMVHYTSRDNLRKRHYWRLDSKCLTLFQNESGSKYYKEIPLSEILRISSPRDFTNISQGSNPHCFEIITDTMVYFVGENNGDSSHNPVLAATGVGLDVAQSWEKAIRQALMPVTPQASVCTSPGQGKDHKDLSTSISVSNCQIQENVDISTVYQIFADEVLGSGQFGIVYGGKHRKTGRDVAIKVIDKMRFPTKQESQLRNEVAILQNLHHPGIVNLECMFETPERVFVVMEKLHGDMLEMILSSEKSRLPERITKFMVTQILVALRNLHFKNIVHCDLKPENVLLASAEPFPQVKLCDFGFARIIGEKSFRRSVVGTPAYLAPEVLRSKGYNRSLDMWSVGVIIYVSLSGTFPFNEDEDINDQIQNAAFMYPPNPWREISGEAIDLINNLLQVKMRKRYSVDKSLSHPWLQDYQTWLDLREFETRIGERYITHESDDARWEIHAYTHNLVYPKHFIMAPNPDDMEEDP
The experiment in a line: Inhibition of human full length PKD3 expressed in baculovirus assessed as substrate phosphorylation using fluorescence-labelled peptides as substrate at 70 uM after 90 mins by microfluidic peptide phosphorylation assay.

MAP/microtubule affinity-regulating kinase 3 (Homo sapiens), sequence (P27448 whole entry, looked up, the tested form may be a part): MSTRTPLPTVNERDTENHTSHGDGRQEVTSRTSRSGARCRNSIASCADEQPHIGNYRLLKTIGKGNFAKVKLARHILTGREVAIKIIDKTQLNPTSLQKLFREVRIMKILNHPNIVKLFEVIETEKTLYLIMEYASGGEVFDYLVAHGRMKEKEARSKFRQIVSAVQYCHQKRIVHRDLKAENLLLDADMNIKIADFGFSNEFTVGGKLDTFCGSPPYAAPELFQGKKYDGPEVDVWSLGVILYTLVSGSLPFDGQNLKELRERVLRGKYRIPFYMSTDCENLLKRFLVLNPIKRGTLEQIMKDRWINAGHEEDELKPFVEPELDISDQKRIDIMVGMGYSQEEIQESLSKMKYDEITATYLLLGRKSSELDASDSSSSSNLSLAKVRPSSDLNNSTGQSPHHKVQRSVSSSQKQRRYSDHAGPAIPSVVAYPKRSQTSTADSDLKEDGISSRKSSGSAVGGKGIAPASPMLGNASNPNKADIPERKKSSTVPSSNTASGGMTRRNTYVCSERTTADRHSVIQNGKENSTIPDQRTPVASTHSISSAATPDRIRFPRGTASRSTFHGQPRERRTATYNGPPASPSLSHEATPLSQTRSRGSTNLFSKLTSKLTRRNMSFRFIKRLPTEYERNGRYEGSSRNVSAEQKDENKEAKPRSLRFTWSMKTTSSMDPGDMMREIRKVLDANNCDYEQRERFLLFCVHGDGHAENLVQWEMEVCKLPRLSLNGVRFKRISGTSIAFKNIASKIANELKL

In the case of `Clc1ccc(C2(c3ccc(-c4ncnc5[nH]cnc45)cc3)CCNCC2)cc1`, the inhibition (commonly the change of the read-out against control, counted positive when it falls) in the assay listed under Homo sapiens stood at 100%.
For `NCCc1ccc(-c2ncnc3[nH]cnc23)cc1`, in [1], the inhibition came to 86.5%.
Consider `NCC1CCN(c2ncnc3[nH]ccc23)CC1`, for which the figures for the inhibition in assay [2] and in assay [3] were 86% and 42.5%, respectively.
For `c1cnc2[nH]ccc2c1`, the inhibition in assay [4] was found to be 77%.
On to `NC1(Cc2ccc(Cl)cc2)CCN(c2ncnc3[nH]ccc23)CC1`, for which the figures for the inhibition in assay [5] and in assay [6] were 4% and 4.5%, respectively.
Take `NC1CCN(c2ncnc3[nH]ccc23)CC1`: the inhibition in assay [7] is 5%; in assay [8], 34%.
`CNCc1ccc(-c2ncnc3[nH]cnc23)cc1`: the inhibition in assay [9] stood at 72.5%.
